According to US8546420B2, “4, 5-ring annulated indole derivatives for treating or preventing of HCV and related viral infections” (Merck Sharp & Dohme Corp., priority 2006, dated 2013):

Experiments:
HCV replicon cells = assay: Cell-Based HCV Replicon Assay; conditions: Hepatitis C virus, 72 h; replicon RNA level by real time PCR (Taqman), cells harvested on day 3
Protocol: To measure cell-based anti-HCV activity of the a Compound of Formula (I), replicon cells were seeded at 5000 cells/well in 96-well collagen I-coated Nunc plates in the presence of the Compound of Formula (I). Various concentrations of a Compound of Formula (I), typically in 10 serial 2-fold dilutions, were added to the assay mixture, the starting concentration of the compound ranging from 250 μM to 1 μM. The final concentration of DMSO was 0.5%, fetal bovine serum was 5%, in the assay media. Cells were harvested on day 3 by the addition of 1× cell lysis buffer (Ambion cat #8721). The replicon RNA level was measured using real time PCR (Taqman assay). The amplicon was located in 5B. The PCR primers were: 5B.2F, ATGGACAGGCGCCCTGA; 5B.2R, […]; the probe sequence was FAM-labeled CACGCCATGCGCTGCGG. GAPDH RNA was used as endogenous control and was amplified in the same reaction as NS5B (multiplex PCR) using primers and VIC-labeled probe recommended by the manufacturer (PE Applied Biosystem). The real-time RT-PCR reactions were run on ABI PRISM 7900HT Sequence Detection System using the following program: 48° C. for 30 min, 95° C. for 10 min, 40 cycles of 95° C. for 15 sec, 60° C. for 1 min. The ACT values (CT5B-CTGAPDH) were plotted against the concentration of test compound and fitted to the sigmoid dose-response model using XLfit4 (MDL). EC50 was defined as the concentration of inhibitor necessary to achieve ΔCT=1 over the projected baseline; EC90 the concentration necessary to achieve […] over the baseline. Alternatively, to quantitate the absolute amount of replicon RNA, a standard curve was established by including serially diluted T7 transcripts of replicon RNA in the Taqman assay. All Taqman reagents were from PE Applied Biosystems. Such an assay procedure was described in detail in e.g. Malcolm et al., Antimicrobial Agents and Chemotherapy 50: 1013-1020 (2006).
HCV Replicon assay data for selected Compounds of Formula (I) is provided below in Table 3, wherein the compound numbers correspond to the compound numbering set forth in the above specification. The data is designated as follows: “A” for EC50 values less than 1.0 micromolar (μM), “B” for EC50 values between 1.0 and 10.0 μM and “C” for EC50 values greater than 10.0 μM.

HCV NS5B polymerase = target: T1, HCV NS5B polymerase (Hepatitis C virus genotype 1b, UniProt P26663); assay: HCV NS5B Polymerase Inhibition Assay; type: biochemical
T1 construct: A soluble C-terminal 21-amino acid truncated NS5B enzyme form; polyhistidine (C); made in house; host or cells: Escherichia coli
Text: A chemically synthesized 75-mer version, designated DCoH75, whose sequence matches the 3′-end of D-RNA, and DCoH75ddC, where the 3′-terminal cytidine of DCoH75 is replaced by dideoxycytidine, were used for assaying the NS5B enzyme activity as described in Ferrari et al., 12th International Symposium on HCV and Related Viruses, P-306 (2005). A soluble C-terminal 21-amino acid truncated NS5B enzyme form (NS5B[…]CT21) was produced and purified from Escherichia coli as C-terminal polyhistidine-tagged fusion protein as described in Ferrari et al., J. Virol. 73:1649-1654 (1999). A typical assay contained 20 mM Hepes pH 7.3, 10 mM MgCl2, 60 mM NaCl, 100 μg/ml BSA, 20 units/ml RNasin, 7.5 mM DTT, 0.1 μM ATP/GTP/UTP, 0.026 μM CTP, 0.25 mM GAU, 0.03 μM RNA template, 20 μCi/ml [^33P]-CTP, 2% DMSO, and 30 or 150 nM NS5B enzyme. Reactions were incubated at 22° C. for 2 hours, then stopped by adding 150 mM EDTA, washed in DE81 filter plate in 0.5M di-basic sodium phosphate buffer, pH 7.0, and counted using Packard TopCount after the addition of scintillation cocktail. Polynucleotide synthesis was monitored by the incorporation of radiolabeled CTP. The effect of the Compounds of Formula (I) on the polymerase activity was evaluated by adding various concentrations of a Compound of Formula (I), typically in 10 serial 2-fold dilutions, to the assay mixture. The starting concentrations of the indole derivatives ranged from 200 μM to 1 μM. An IC50 value for the inhibitor, defined as the compound concentration that provides 50% inhibition of polymerase activity, was determined by fitting the cpm data to the Hill equation Y=100/(1+10^((Log IC50−X)*HillSlope)), where X is the logarithm of compound concentration, and Y is the % inhibition. Ferrari et al., 12th International Symposium on HCV and Related Viruses, P-306 (2005) described in detail this assay procedure. It should be noted that such an assay as described is exemplary and not intended to limit the scope of the invention. The skilled practitioner can appreciate that modifications including but not limited to RNA template, primer, nucleotides, NS5B polymerase form, buffer composition, can be made to develop similar assays that yield the same result for the efficacy of the compounds and compositions described in the invention.
NS5B polymerase inhibition data for selected Compounds of Formula (I) is provided below in Table 2, wherein the compound numbers correspond to the compound numbering set forth in the above specification.

T1 sequence (P26663 2420-2989): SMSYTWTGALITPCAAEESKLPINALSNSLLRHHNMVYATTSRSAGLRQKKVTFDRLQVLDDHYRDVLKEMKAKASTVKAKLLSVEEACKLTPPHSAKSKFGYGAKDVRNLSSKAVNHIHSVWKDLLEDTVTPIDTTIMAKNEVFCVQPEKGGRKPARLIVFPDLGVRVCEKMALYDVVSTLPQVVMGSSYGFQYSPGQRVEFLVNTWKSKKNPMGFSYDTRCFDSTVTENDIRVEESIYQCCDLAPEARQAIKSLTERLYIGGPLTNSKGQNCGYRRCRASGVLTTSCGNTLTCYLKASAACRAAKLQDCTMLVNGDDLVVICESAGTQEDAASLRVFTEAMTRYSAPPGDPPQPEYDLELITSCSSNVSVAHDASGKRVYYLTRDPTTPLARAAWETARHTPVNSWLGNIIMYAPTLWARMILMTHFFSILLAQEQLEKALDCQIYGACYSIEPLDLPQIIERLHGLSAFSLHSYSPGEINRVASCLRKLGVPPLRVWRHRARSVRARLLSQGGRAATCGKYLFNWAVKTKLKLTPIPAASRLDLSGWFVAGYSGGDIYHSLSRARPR

Molecule `Nc1ccccc1Cn1c(C(=O)O)c(-c2ccccc2F)c2c3ccccc3ccc21` [Compound 1] has an EC50 (HCV replicon cells) greater than 10 µM and an IC50 (HCV NS5B polymerase) greater than 100 nM.
For `O=C(O)c1c(-c2ccccc2F)c2c3ccccc3ccc2n1Cc1ccccc1` [Compound 2], the IC50 (HCV NS5B polymerase) was greater than 100 nM.
With `Nc1cc(Cn2c(C(=O)O)c(-c3ccccc3F)c3c4ccccc4ccc32)ccn1` [Compound 3] the EC50 (HCV replicon cells) was 1 to 10 µM and the IC50 (HCV NS5B polymerase) was greater than 100 nM.
`Nc1cc(Cn2c(C(=O)O)c(-c3ccc[nH]c3=O)c3c4ccccc4ccc32)ccn1` [Compound 4] showed an EC50 (HCV replicon cells) of 1 to 10 µM and an IC50 (HCV NS5B polymerase) greater than 100 nM.
`Nc1cc(Cn2c(C(=O)O)c(-c3ccccc3F)c3c4ccccc4ccc32)ncn1` [Compound 5] gave an EC50 (HCV replicon cells) greater than 10 µM and an IC50 (HCV NS5B polymerase) greater than 100 nM.
Molecule `CS(=O)(=O)NC(=O)c1c(-c2ccc[nH]c2=O)c2c3ccccc3ccc2n1Cc1ccnc(N)c1` [Compound 6] has an EC50 (HCV replicon cells) greater than 10 µM and an IC50 (HCV NS5B polymerase) of 25 to 100 nM.
Molecule `O=C(O)c1cccc(Cn2c(C(=O)O)c(-c3ccccc3F)c3c4ccccc4ccc32)c1` [Compound 7] has an EC50 (HCV replicon cells) greater than 10 µM and an IC50 (HCV NS5B polymerase) greater than 100 nM.
In the case of `O=C(O)c1cccc(Cn2c(C(=O)O)c(-c3ccc[nH]c3=O)c3c4ccccc4ccc32)c1` [Compound 8], the IC50 (HCV NS5B polymerase) is reported as greater than 100 nM.
`CS(=O)(=O)NC(=O)c1cccc(Cn2c(C(=O)NS(C)(=O)=O)c(-c3ccc[nH]c3=O)c3c4ccccc4ccc32)c1` [Compound 9] was tested, and the IC50 (HCV NS5B polymerase) was 25 to 100 nM.
For `COC(=O)c1cccc(Cn2c(C(=O)NS(C)(=O)=O)c(-c3ccc[nH]c3=O)c3c4ccccc4ccc32)c1` [Compound 10], the EC50 (HCV replicon cells) was 1 to 10 µM and the IC50 (HCV NS5B polymerase) was less than 25 nM.
For `Nc1cc(Cn2c(C(=O)NS(=O)(=O)c3ccccc3)c(-c3ccc[nH]c3=O)c3c4ccccc4ccc32)ccn1` [Compound 11], the EC50 (HCV replicon cells) was 1 to 10 µM and the IC50 (HCV NS5B polymerase) was 25 to 100 nM.
For `CS(=O)(=O)NC(=O)c1c(-c2ccc[nH]c2=O)c2c3ccccc3ccc2n1Cc1cccc(C(=O)O)c1` [Compound 12], the EC50 (HCV replicon cells) was greater than 10 µM and the IC50 (HCV NS5B polymerase) was less than 25 nM.
For `CC(C)(C)S(=O)(=O)NC(=O)c1c(-c2ccc[nH]c2=O)c2c3ccccc3ccc2n1Cc1ccnc(N)c1` [Compound 13], the IC50 (HCV NS5B polymerase) was 25 to 100 nM.
`CCS(=O)(=O)NC(=O)c1c(-c2ccc[nH]c2=O)c2c3ccccc3ccc2n1Cc1ccnc(N)c1` [Compound 14] was tested, and the EC50 (HCV replicon cells) was 1 to 10 µM and the IC50 (HCV NS5B polymerase) was 25 to 100 nM.
Molecule `Nc1cc(Cn2c(C(=O)NS(=O)(=O)c3ccc(O)cc3)c(-c3ccc[nH]c3=O)c3c4ccccc4ccc32)ccn1` [Compound 15] has an EC50 (HCV replicon cells) of 1 to 10 µM and an IC50 (HCV NS5B polymerase) of 25 to 100 nM.
For `CS(=O)(=O)Nc1cccc(S(=O)(=O)NC(=O)c2c(-c3ccc[nH]c3=O)c3c4ccccc4ccc3n2Cc2ccc(F)cc2F)c1` [Compound 16], the EC50 (HCV replicon cells) was less than 1 µM and the IC50 (HCV NS5B polymerase) was less than 25 nM.
In the case of `O=C(O)c1c(-c2ccc[nH]c2=O)c2c3ncccc3ccc2n1Cc1cc(F)ccc1F` [Compound 17], the EC50 (HCV replicon cells) is reported as 1 to 10 µM and the IC50 (HCV NS5B polymerase) is reported as 25 to 100 nM.
With `O=C(O)c1c(-c2ccc[nH]c2=O)c2c3ncccc3ccc2n1Cc1ccccc1F` [Compound 18] the EC50 (HCV replicon cells) was 1 to 10 µM and the IC50 (HCV NS5B polymerase) was greater than 100 nM.
Work on `O=C(O)c1c(-c2ccc[nH]c2=O)c2c3ncccc3ccc2n1Cc1ccc(F)cc1F` [Compound 19] yielded an IC50 (HCV NS5B polymerase) greater than 100 nM.
Work on `CS(=O)(=O)NC(=O)c1c(-c2ccc[nH]c2=O)c2c3c(ccc2n1Cc1cc(F)ccc1F)OCCO3` [Compound 20] yielded an EC50 (HCV replicon cells) of less than 1 µM and an IC50 (HCV NS5B polymerase) of less than 25 nM.
Molecule `CS(=O)(=O)NC(=O)c1c(-c2ccc[nH]c2=O)c2c3c(ccc2n1Cc1ccccc1F)CCCO3` [Compound 21] has an EC50 (HCV replicon cells) of less than 1 µM and an IC50 (HCV NS5B polymerase) of less than 25 nM.
Molecule `O=C(O)c1c(-c2ccc[nH]c2=O)c2c3c(ccc2n1Cc1ccccc1F)CCCO3` [Compound 22] has an EC50 (HCV replicon cells) of less than 1 µM and an IC50 (HCV NS5B polymerase) of less than 25 nM.
For `O=C(O)c1c(-c2ccc[nH]c2=O)c2c3c(ccc2n1Cc1ccccc1F)OCCO3` [Compound 23], the EC50 (HCV replicon cells) was 1 to 10 µM and the IC50 (HCV NS5B polymerase) was less than 25 nM.
`O=C(O)c1c(-c2ccc[nH]c2=O)c2c3ccccc3c(F)cc2n1Cc1ccccc1F` [Compound 24] gave an EC50 (HCV replicon cells) of 1 to 10 µM and an IC50 (HCV NS5B polymerase) of 25 to 100 nM.
`O=C(O)c1c(-c2ccc[nH]c2=O)c2c3c(ccc2n1Cc1cc(F)ccc1F)CCCO3` [Compound 25] gave an EC50 (HCV replicon cells) of less than 1 µM and an IC50 (HCV NS5B polymerase) of less than 25 nM.
`O=C(O)c1c(-c2ccc[nH]c2=O)c2c3c(ccc2n1Cc1cc(F)ccc1F)OCCO3` [Compound 26] was tested, and the EC50 (HCV replicon cells) was less than 1 µM and the IC50 (HCV NS5B polymerase) was less than 25 nM.
Molecule `O=C(O)c1c(-c2ccc[nH]c2=O)c2c3ccccc3c(F)cc2n1Cc1cc([N+](=O)[O-])ccc1F` [Compound 27] has an EC50 (HCV replicon cells) of less than 1 µM and an IC50 (HCV NS5B polymerase) of 25 to 100 nM.
For `CS(=O)(=O)NC(=O)c1c(-c2ccc[nH]c2=O)c2c3c(ccc2n1Cc1ccccc1F)OCCO3` [Compound 28], the EC50 (HCV replicon cells) was less than 1 µM and the IC50 (HCV NS5B polymerase) was less than 25 nM.
With `CS(=O)(=O)NC(=O)c1c(-c2ccc[nH]c2=O)c2c3c(ccc2n1Cc1cc(F)ccc1F)CCCO3` [Compound 29] the EC50 (HCV replicon cells) was less than 1 µM and the IC50 (HCV NS5B polymerase) was less than 25 nM.
Work on `O=C(NS(=O)(=O)C1CC1)c1c(-c2ccc[nH]c2=O)c2c3c(ccc2n1Cc1ccccc1F)CCCO3` [Compound 30] yielded an EC50 (HCV replicon cells) of less than 1 µM and an IC50 (HCV NS5B polymerase) of less than 25 nM.
`O=C(NS(=O)(=O)C1CC1)c1c(-c2ccc[nH]c2=O)c2c3ccccc3c(F)cc2n1Cc1ccccc1F` [Compound 31] showed an EC50 (HCV replicon cells) of less than 1 µM and an IC50 (HCV NS5B polymerase) of less than 25 nM.
`O=C(NS(=O)(=O)C1CC1)c1c(-c2ccc[nH]c2=O)c2c3c(ccc2n1Cc1cc(F)ccc1F)CCCO3` [Compound 32] showed an EC50 (HCV replicon cells) of less than 1 µM and an IC50 (HCV NS5B polymerase) of less than 25 nM.
Molecule `O=C(NS(=O)(=O)C1CC1)c1c(-c2ccc[nH]c2=O)c2c3ccccc3c(F)cc2n1Cc1cc([N+](=O)[O-])ccc1F` [Compound 33] has an EC50 (HCV replicon cells) of less than 1 µM and an IC50 (HCV NS5B polymerase) of less than 25 nM.
